Experiments:
[1] = The compound was tested for its inhibitory activity against alpha-mannosidase using p-nitrophenylmannopyranoside as substrate
[2] = The compound was tested for its competitive inhibitory activity against Alpha-mannosidase

Km [1] [µM] | Ki [2] [µM] | SMILES
1200 | 80 | O=C(Nc1ccccc1)O/N=C1\OC(CO)C(O)C(O)C1O (centres undefined)
570 | 50 | O=[N+]([O-])c1ccc(O/N=C2\OC(CO)C(O)C(O)C2O)c([N+](=O)[O-])c1 (centres undefined)

Reference: ChEMBL document CHEMBL1131404, “A new strong inhibitor of beta-mannosidase” (Bioorg Med Chem Lett, 1998)
